Patent US12503617B2, “Ink jet ink composition and recording method” (SEIKO EPSON CORPORATION, priority 2022, dated 2025)

Assay: Solubility in 100 g of water at 20° C.

## CC(CO)(CO)CO [trimethylolethane]
  solubility: approximately 60 g/100 g of water
